In patent US20110212891A1 (MSD K.K., priority 2008, published 2011) one finds IC50 data, which are given here for 12 compounds.

In one test the target is T1, Human DGAT1 (Homo sapiens, UniProt O75907).
T1 construct: made in house; host or cells: Pichia pastoris (printed 'Pichia pastris'), vector pPICZA; the membrane fraction served as enzyme source
T1 sequence (O75907 1-488): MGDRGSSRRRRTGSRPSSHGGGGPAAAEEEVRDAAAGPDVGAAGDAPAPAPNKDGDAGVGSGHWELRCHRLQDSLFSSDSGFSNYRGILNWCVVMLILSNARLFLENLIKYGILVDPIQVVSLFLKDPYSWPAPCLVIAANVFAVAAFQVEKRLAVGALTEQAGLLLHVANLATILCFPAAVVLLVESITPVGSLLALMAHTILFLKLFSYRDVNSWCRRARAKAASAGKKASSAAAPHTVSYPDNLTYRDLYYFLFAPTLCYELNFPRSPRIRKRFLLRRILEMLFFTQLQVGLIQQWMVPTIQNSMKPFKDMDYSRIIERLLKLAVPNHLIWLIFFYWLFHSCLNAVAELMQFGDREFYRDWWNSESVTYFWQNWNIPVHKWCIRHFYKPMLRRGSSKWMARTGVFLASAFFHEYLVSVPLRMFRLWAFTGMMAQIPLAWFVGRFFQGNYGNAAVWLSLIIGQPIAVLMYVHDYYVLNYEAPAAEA
As to the kind of experiment: DGAT1 Inhibitory Activity Test ([14C]-oleoyl-CoA, DGAT1-expressed yeast membrane fraction). The class given is biochemical. Conditions: Table 5, room temperature, 30 minutes. On the procedure: Human DGAT1 genes were amplified by PCR using primers described below from human cDNA library (Clontech).
The amplified human DGAT1 genes were introduced into a yeast expression vector pPICZA (Invitrogen). The resultant expression plasmid was introduced into a yeast (Pichia pastris) by electroporation to produce a recombinant yeast. The recombination yeast was cultured in the presence of 0,5% methanol for 72 hours, and the cells were crushed using glass beads in 10 mM Tris pH 7.5, 250 mM sucrose and 1 mM EDTA, followed by adjusting the membrane fraction by centrifugation to use the adjusted membrane fraction as an enzyme source.
To the reaction liquid having the following composition: 100 mM Tris pH 7.5, 100 mM MgCl2, 100 mM sucrose, 40 μM dioelin, 15 μm [^14C]-oleoyl-CoA, 0.25 μg of test substance, DGAT1-expressed yeast membrane fraction, was added, and the mixture having a volume of 100 μl was incubated at room temperature for 30 minutes. To the reaction liquid, 100 μl of 2-propanol/heptan/H2O (80:20:2) was added, the mixture was stirred well, followed by adding 200 μl of heptane and further stirring the mixture. After centrifugation, the heptane layer was collected, ethanol/0.1N NaOH/H2O (50:5:45) was added, the mixture was thus stirred, followed by recentrifuging the mixture and collecting the heptane layer. After exsiccation of the obtained heptane layer, 100 μl of Microscint 0 (PerkinElmer) was added, and the radioactivity was measured with a liquid scintillation counter. The inhibitory activity was calculated from the following formula:
Inhibition rate=100−(radioactivity in case of addition of test compound−background)/(radioactivity in case of addition of no test compound−background)×100
wherein the background means the radioactivity in case of addition of no membrane fraction.
For orientation: IC50 means the point on the concentration scale where inhibition reaches its midpoint. For the compound `O=C1C(NC(=O)C2(NC(=O)C3(C(F)(F)F)CC3)CC2)CCc2cc(OC(F)(F)F)ccc2N1Cc1cc(C(F)(F)F)cc(C(F)(F)F)c1` (single isomer, unassigned) [Example 41 Enantiomer A, N-[1-({[1-[3,5-bis(trifluoromethyl)benzyl]-2-oxo-7-(trifluoromethoxy)-2,3,4,5-tetrahydro-1H-1-benzazepin-3-yl]amino}carbonyl)cyclopropyl]-1-(trifluoromethyl)cyclopropane carboxyamide], the IC50 is 137 nM. Regarding `O=C1C(NC(=O)C2(NC(=O)C3(C(F)(F)F)CC3)CC2)CCc2cc(OC(F)(F)F)ccc2N1Cc1cc(C(F)(F)F)cc(C(F)(F)F)c1` (single isomer, unassigned) [Example 41 Enantiomer B, N-[1-({[1-[3,5-bis(trifluoromethyl)benzyl]-2-oxo-7-(trifluoromethoxy)-2,3,4,5-tetrahydro-1H-1-benzazepin-3-yl]amino}carbonyl)cyclopropyl]-1-(trifluoromethyl)cyclopropane carboxyamide], the IC50 is 858 nM.

In the case of `CC(C)(C)OC(=O)NC1(C(=O)NC2CCc3ccccc3N(Cc3ccc(OC(F)(F)F)cc3)C2=O)CCC1` (single isomer, unassigned) [Example 46 Enantiomer A, tert-butyl{1-[({2-oxo-1-[4-(trifluoromethoxy)benzyl]-2,3,4,5-tetrahydro-1H-1-benzazepin-3-yl}amino)carbonyl]cyclobutyl}carbamate], the IC50 was determined as 189 nM. For `CC(C)(C)OC(=O)NC1(C(=O)NC2CCc3ccccc3N(Cc3ccc(OC(F)(F)F)cc3)C2=O)CCC1` (single isomer, unassigned) [Example 46 Enantiomer B, tert-butyl{1-[({2-oxo-1-[4-(trifluoromethoxy)benzyl]-2,3,4,5-tetrahydro-1H-1-benzazepin-3-yl}amino)carbonyl]cyclobutyl}carbamate], the IC50 came out at 14 nM. For `CC(C)(C)OC(=O)NC1(C(=O)NC2CCc3ccccc3N(Cc3ccc(OC(F)(F)F)cc3)C2=O)CCCC1` (single isomer, unassigned) [Example 47 Enantiomer A], the IC50 amounted to 153 nM. Consider `CC(C)(C)OC(=O)NC1(C(=O)NC2CCc3ccccc3N(Cc3ccc(OC(F)(F)F)cc3)C2=O)CCCC1` (single isomer, unassigned) [Example 47 Enantiomer B], for which the IC50 was found to be 21 nM.

Regarding `O=C(NC1(C(=O)N[C@@H]2CC(=O)c3ccccc3N(Cc3cc(C(F)(F)F)cc(C(F)(F)F)c3)C2=O)CC1)c1ccc(F)c(F)n1` [Example 8], the half-maximal inhibitory concentration (IC50) was 85 nM.

As to `CC(C)(C)OC(=O)NC1(C(=O)N[C@H]2CC(=O)c3ccccc3N(Cc3ccc(-c4ccccc4)cc3)C2=O)CC1` [Example 21], the IC50 was found to be 24 nM.

Staying with this test, now noted: Table 6, room temperature, 30 minutes.
On to `O=C(NC1(C(=O)N[C@@H]2CC(=O)c3ccccc3N(Cc3cc(C(F)(F)F)cc(C(F)(F)F)c3)C2=O)CC1)c1nccs1` [Example 50, N-{1-[({(3R)-1-[3,5-bis(trifluoromethyl)benzyl]-2,5-dioxo-2,3,4,5-tetrahydro-1H-1-benzazepin-3-yl}amino)carbonyl}cyclopropyl}-1,3-thiazole-2-carboxamide], for which the half-maximal inhibitory concentration (IC50) turned out to be 65 nM. Still for that read-out and setting: under `CC(C)(C)OC(=O)NC1(C(=O)N[C@@H]2CC(=O)c3ccccc3N(Cc3cc(C(F)(F)F)cc(C(F)(F)F)c3)C2=O)CCC1` [Example 51, tert-butyl{1-[({(3R)-1-[3,5-bis(trifluoromethyl)benzyl]-2,5-dioxo-2,3,4,5-tetrahydro-1H-1-benzazepin-3-yl}amino)carbonyl]cyclobutyl}carbamate] stands 41 nM; under `O=C(NC1(C(=O)N[C@@H]2CC(=O)c3ccccc3N(Cc3cc(C(F)(F)F)cc(C(F)(F)F)c3)C2=O)CCC1)c1nccs1` [Example 52, N-{1-[({(3R)-1-[3,5-bis(trifluoromethyl)benzyl]-2,5-dioxo-2,3,4,5-tetrahydro-1H-1-benzazepin-3-yl}amino)carbonyl]cyclobutyl}-1,3-thiazole-2-carboxamide], 253 nM; under `O=C(NC1(C(=O)N[C@@H]2CC(=O)c3ccccc3N(Cc3cc(C(F)(F)F)cc(C(F)(F)F)c3)C2=O)CCC1)c1ccc(F)cc1` [Example 53, N-{1-[({(3R)-1-[3,5-bis(trifluoromethyl)benzyl]-2,5-dioxo-2,3,4,5-tetrahydro-1H-1-benzazepin-3-yl}amino)carbonyl]cyclobutyl}-4-fluorobenzamide], 77 nM.
